Assay results from patent US10052304B2, “Compositions and methods for cancer therapy” (UNIVERSITY OF IOWA RESEARCH FOUNDATION, priority 2015, dated 2018).
“And” between values parts separate entries of the source, which are not always exact repeats. Equal entries are not always repeated. “Also recorded” adds a separate entry of the source.

How the values were obtained:
NCI-H292 cells = experiment: Clonogenic survival assay, NCI-H292 NSCLC cells; type: cell-based, human
Method: Treatment conditions for individual experiments are as described in the figure legends and summarized in the Supplemental Experimental Procedures.
1-2×10^5 cells were plated in 60 mm cell culture dishes and grown in their respective media for 48 h before exposed to experimental conditions. […] For AdGPx1 experiments, cells were supplemented with 50 nM sodium selenite following transduction and throughout clonogenic growth. […] After treatment, cells were washed with PBS and clonogenic assay was completed in their respective media. Briefly, floating and attached cells were collected and total cells per plate were counted. An experimentally derived number of cells were plated into each well of a 6-well cell culture plate in their respective media. For HEL92.1.7 suspension cells, cells were seeded in a top layer of 0.4% (w/v) agarose to allow for quantifiable colony formation. […] Normalized survival fractions were calculated by comparing plating efficiencies of each treatment group against the control group within a given experiment.

ARP1 myeloma cells = experiment: Luciferase-labeled ARP1 myeloma xenograft, intravenous injection, NOD-SCID mice; type: in vivo; settings: ascorbate 4 g/kg daily
Source text: The first model used is a luciferase labeled human myeloma cell line ARP1.

GBM subjects = experiment: Phase I clinical trial of pharmacological ascorbate with radiation and temozolomide in GBM
Method: The study was broken into two phases: radiation phase and adjuvant phase. Radiation phase was defined as the time period from day 1 of radiation through adjuvant cycle 1, day 1.
Adjuvant phase was defined as the time period from cycle 1 day 1 through cycle 6 day 28. […] Prescribed doses utilized the same cohorts as the radiation phase. Subjects were dose-escalated after 2 infusions until a plasma level of 20 mM was achieved. […] Temozolomide was prescribed consistent with the Stupp regimen: 150 mg m^−2 for days 1 through 5 of a 28 day cycle. A one-time dose escalation was allowed to 200 mg/m^2 if cycle 1 was tolerated (FIG. 18A).
All subjects agreed to, and participate in, lifelong follow-up for this study. Subject numbers are for convenience and not representative of case ID numbers.
The study was broken into two phases: radiation phase and adjuvant phase. Radiation phase was defined as the time period from day 1 of radiation through adjuvant cycle 1, day 1. […] Cohorts were defined as 15 g, 25 g, 50 g, 62.5 g, 75 g, 87.5 g, 100 g, and 125 g. […] Adjuvant phase was defined as the time period from cycle 1 day 1 through cycle 6 day 28. […] Prescribed doses utilized the same cohorts as the radiation phase. Subjects were dose-escalated after 2 infusions until a plasma level of 20 mM was achieved. […] Temozolomide was prescribed consistent with the Stupp regimen: 150 mg m-2 for days 1 through 5 of a 28 day cycle. A one-time dose escalation was allowed to 200 mg/m2 if cycle 1 was tolerated (FIG. 18A). […] Dose limiting toxicities (DLTs) for the study included grade 4 infection, grade 3 nausea or vomiting despite maximum supportive care, grade 4 neutropenia or thrombocytopenia, and serious adverse events (SAE) with causality to the investigational agent. In addition to DLT, criteria for removal included progressive disease, patient's refusal to continue treatment, and extraordinary medical circumstances (e.g., the constraints of the protocol are considered detrimental to patient health). All subjects agreed to, and participate in, lifelong follow-up for this study. Subject numbers are for convenience and not representative of case ID numbers.

U87 xenografts = experiment: GBM (U87) flank xenograft model; type: in vivo, mice
Method: Female 4-6 week old female athymic-nu/nu mice were purchased from Envigo (previously Harlan Laboratories) and housed in the Animal Care Facility at the University of Iowa (Iowa City, Iowa), and all procedures were approved by the University of Iowa Institutional Animal Care and Use Committee and conformed to NIH guidelines. 1×10^6 H292 or U87 cells were injected subcutaneously into the right rear flank and mice were euthanized and sacrificed when tumor length exceeded 1.5 cm in any dimension.
1×10^6 H292 or U87 cells were injected subcutaneously into the right rear flank. […] Tumors were measured every other day with Vernier calipers (volume=(length×width×(width/2)) and mice were euthanized and sacrificed when tumor length exceeded 1.5 cm in any dimension.

[1] = tested on: stage IV pancreas cancer patients; settings: cited from earlier work
NSCLC cells [2] = experiment: Cellular labile iron pool (Calcein-AM flow cytometry), NSCLC cells; type: cell-based, human; settings: increasing doses of ascorbate
Method: The labile iron pool (LIP) was visualized using the fluorescent dye Calcein-AM as previously described (Epsztejn et al., 1997) with modifications. After labeling, samples were divided into two flow cytometry sample tubes, to which 100 μM 2′,2′-bipyridyl (BIP) was added to one tube and analyzed by flow cytometry. BIP tubes were incubated for at least 15 minutes before analysis to allow for full chelation of intracellular labile iron. The LIP (A.U.)=MFIBIP−MFINoBIP was normalized against the control samples to calculate the relative labile iron pool.
The labile iron pool (LIP) was visualized using the fluorescent dye Calcein-AM as previously described with modifications (Epsztejn et al., 1997). Briefly, after sample treatment, cells were trypsinized, spun at 1,200 rpm for 5 min, and resuspended at approximately 1×10^6 cells mL-1 in 500 nM Calcein-AM in PBS. Samples were incubated for 15 min at 4% O2 in a humidity controlled environment (37° C., 5% CO2). Subsequently, samples were pelleted, washed in PBS, and resuspended in 1 mL PBS before dividing each sample into two flow cytometry sample tubes, to which 100 μM 2′,2′-bipyridyl (BIP) was added to one tube. Samples were kept at room temperature and analyzed on a LSR II Flow Cytometer (BD Biosciences; λex=488 nm, λem=515/20 nm). […]

NSCLC cells [3] = experiment: Intracellular H2O2 with PeroxyOrange-1, NSCLC cells; type: cell-based, human; settings: ascorbate 15 pmol cell^−1
Method: To visualize intracellular H2O2 levels, the selectively sensitive fluorescent probe PeroxyOrange-1 was utilized as previously described with modifications (Dickinson et al., 2010). 1×10^5 cells were plated and grown in their respective media for 48 h. The complete protocol was conducted in the dark with minimal ambient lighting. Cells were washed with PBS and incubated with 10 uM PO-1 in phenol red free RPMI supplemented with HBE growth supplements for 1 h at 37° C. Cells were then washed in PBS and placed back in phenol red free RPMI supplemented with HBE growth supplements. […] At times indicated, cells were placed on ice for the remainder of the protocol, washed, and trypsinized with phenol red free 0.5% trypsin. After 15 min, cells still attached were scraped and all cells were collected in 15 mL conical vials containing PBS+10% FBS to neutralize the trypsin reaction. Cells were spun at 1200 rpm for 5 min at 4° C., resuspended in 300-500 uL PBS and were run on a LSR II Flow Cytometer (BD Biosciences) with λex=561 nm, λem=585/20 nm. The mean fluorescence intensity (MFI) was analyzed (FlowJo™) and corrected for autoflourescence against unlabeled cells. Normalized MFI was calculated by comparing MFI for a given treatment group against control.

[4] = ascorbate + radiation + temozolomide
[5] = ascorbate + radiation + temozolomide, 11 subjects

## O=C1O[C@H]([C@@H](O)CO)C(O)=C1O [ascorbate, L-ascorbic acid]
NCI-H292 cells; 1 h ascorbate + 5 μM carboplatin + 2 Gy IR vs Carbo+IR alone
  sensitization to carboplatin + IR (clonogenic survival): significantly increased sensitivity to Carbo+IR; also recorded: selectively sensitized
NCI-H292 cells; ascorbate alone, 1 h exposure
  clonogenic survival / cell killing: more clonogenic cell killing in NSCLC cell lines than chemotherapy plus radiation; also recorded: dose-dependent clonogenic cell killing
ARP1 myeloma cells
  tumor growth rate: significantly decreased tumor growth rate
ARP1 myeloma cells; approximately 15 days
  decrease of mean tumor fluorescent intensity vs control: 59%
GBM subjects; 87.5 g infusions
  desired therapeutic blood level (≥20 mM target plasma concentration) reached: achieved in all subjects
GBM subjects; all 13 subjects, 15-125 g/infusion IV
  safety and tolerability: safe and well tolerated
GBM subjects; as of 7/28/15
  patients that completed the radiation phase still living: 10 of 11
GBM subjects; [4]
  OS range: 7.3-29.3 m and 7.3-31.1 m
  PFS range: 3.4-29.3 m and 3.4-31.1 m
  estimated median overall survival (Kaplan-Meier): 28.4 months
  mean progression free survival as of 7/28/15: 14 months
  median OS: 15.5 m
  median PFS: 9.4 m
GBM subjects; [5]
  average overall survival (OS): 18.2 months
  average progression free survival (PFS): 11.9 months
  current median overall survival (OS): 16.5 months
  median progression free survival (PFS): 9.4 months
GBM subjects; in combination with radiation and temozolomide
  adverse events attributed to pharmacological ascorbate: no adverse events attributed to pharmacological ascorbate
GBM subjects; of 11 subjects in longevity analysis
  subjects remaining alive: 7
U87 xenografts; ascorbate 4 g kg^−1 IP daily
  tolerability (mouse weight): well tolerated
U87 xenografts; ascorbate 4 g kg^−1 IP daily + 12 Gy IR/2 fractions + weekly 2.5 mg kg^−1 TMZ
  overall survival: significantly increased overall survival
[1]; ascorbate + gemcitabine
  side effects attributed to the combination: rare and included diarrhea and dry mouth
[1]; pharmacological ascorbate + gemcitabine, stage IV pancreas cancer
  average survival: 14 months
NSCLC cells [2]
  cellular LIP after ascorbate: significant dose-dependent ascorbate-induced increases in cellular LIP
NSCLC cells [3]
  steady-state levels of H2O2 (PeroxyOrange-1): significantly increased from baseline
